Experimental data: PubChem BioAssay AID330 (DTP/NCI, 2004)
Several values for one entry are separate records, joined by “and”; a condition that tells them apart may be missing. Identical values can stand only once. Toxic doses and inconclusive results are not listed. How the source made its calls: active means survival T/C of 150% or more; inactive means T/C below 125% in these data.

System: P388 leukemia ip, CD2F1 mice, survival T/C
Assay: NCI In Vivo Anticancer Drug Screen. Data for tumor model P388 Leukemia (intraperitoneal) in CD2F1 (CDF1) mice
Details: endpoint: median survival time, higher = longer survival
Method: The antitumor activity of compounds was measured in mice bearing transplantable tumors. Survival or tumor size were measured and the results are expressed as the measurement made in the treated group (T) divided by the measurement made in the vehicle treated control group (C). The tumor model used in this assay is P388 Leukemia (intraperitoneal) in CD2F1 (CDF1) mice

[1] = dose: 50.0 mg/kg/injection, schedule: Q01DX009 (ip), vehicle: Klucel (hydroxypropylcellulose) (HPC)
[2] = dose: 50.0 mg/kg/injection, schedule: Q01DX005 (ip), vehicle: Klucel (hydroxypropylcellulose) (HPC)
[3] = dose: 100.0 mg/kg/injection, schedule: Q01DX005 (ip), vehicle: Klucel (hydroxypropylcellulose) (HPC)
[4] = dose: 200.0 mg/kg/injection, schedule: Q01DX005 (ip), vehicle: Klucel (hydroxypropylcellulose) (HPC)
[5] = dose: 50.0 mg/kg/injection, schedule: Q01DX009 (ip), vehicle: saline
[6] = dose: 100.0 mg/kg/injection, schedule: Q01DX009 (ip), vehicle: Klucel (hydroxypropylcellulose) (HPC)
[7] = dose: 100.0 mg/kg/injection, schedule: Q01DX009 (ip), vehicle: saline
[8] = dose: 200.0 mg/kg/injection, schedule: Q01DX009 (ip), vehicle: Klucel (hydroxypropylcellulose) (HPC)
[9] = dose: 60.0 mg/kg/injection, schedule: Q01DX005 (ip), vehicle: Klucel (hydroxypropylcellulose) (HPC)
[10] = dose: 120.0 mg/kg/injection, schedule: Q01DX005 (ip), vehicle: Klucel (hydroxypropylcellulose) (HPC)
[11] = dose: 240.0 mg/kg/injection, schedule: Q01DX005 (ip), vehicle: Klucel (hydroxypropylcellulose) (HPC)
[12] = dose: 25.0 mg/kg/injection, schedule: Q01DX009 (ip), vehicle: water
[13] = dose: 100.0 mg/kg/injection, schedule: Q04DX002 (ip), vehicle: saline with Tween-80
[14] = dose: 200.0 mg/kg/injection, schedule: Q04DX002 (ip), vehicle: saline with Tween-80
[15] = dose: 25.0 mg/kg/injection, schedule: Q01DX009 (ip), vehicle: saline with Tween-80
[16] = dose: 50.0 mg/kg/injection, schedule: Q01DX009 (ip), vehicle: saline with Tween-80
[17] = dose: 100.0 mg/kg/injection, schedule: Q04DX003 (ip), vehicle: saline with Tween-80

Measured: T/C

CSc1nc(C(N)=O)cc(=O)[nH]1
inactive: dose: 3.12 mg/kg/injection, schedule: Q01DX009 (ip), vehicle: Klucel (hydroxypropylcellulose) (HPC) 104 % of control | dose: 6.25 mg/kg/injection, schedule: Q01DX009 (ip), vehicle: Klucel (hydroxypropylcellulose) (HPC) 104 % of control | dose: 12.5 mg/kg/injection, schedule: Q01DX009 (ip), vehicle: Klucel (hydroxypropylcellulose) (HPC) 104 % of control and 106 % of control | dose: 25.0 mg/kg/injection, schedule: Q01DX009 (ip), vehicle: Klucel (hydroxypropylcellulose) (HPC) 105 % of control | [1] 92 % of control

O=c1c(O)c(O)c1=O.[NH2-].[NH2-].[NH2-].[NH2-].[NH2-].[Ru+5]
inactive: dose: 10.56 mg/kg/injection, schedule: Q04DX002 (ip), vehicle: suspension in saline 121 % of control

CC(O)C(=O)N(C)CCCO (stereo unspecified)
inactive: dose: 50.0 mg/kg/injection, schedule: Q01DX005 (ip), vehicle: saline 92 % of control | dose: 100.0 mg/kg/injection, schedule: Q01DX005 (ip), vehicle: saline 101 % of control | dose: 200.0 mg/kg/injection, schedule: Q01DX005 (ip), vehicle: saline 100 % of control

NC(N)=NN=C(C1CC1)C1CC1
inactive: [2] 100 % of control | [3] 98 % of control | [4] 103 % of control

CCN(CC)CCCC(CCl)Nc1ccnc2cc(Cl)ccc12 (stereo unspecified)
inactive: [1] 113 % of control | [5] 97 % of control | [6] 100 % of control | [7] 100 % of control | [8] 98 % of control

CCCCN=Cc1ccccc1O.CCCCN=Cc1ccccc1O.[Cu]
inactive: [2] 99 % of control

CCN(CC)C(=O)c1cncc(C(N)=O)c1
inactive: [9] 110 % of control | [10] 111 % of control | [11] 101 % of control

NC(CSCCc1ccncc1)C(=O)O (stereo unspecified)
inactive: dose: 6.25 mg/kg/injection, schedule: Q01DX009 (ip), vehicle: saline 103 % of control | dose: 12.5 mg/kg/injection, schedule: Q01DX009 (ip), vehicle: saline 105 % of control | dose: 25.0 mg/kg/injection, schedule: Q01DX009 (ip), vehicle: saline 96 % of control

O=NNc1ncc(Sc2ccccc2)nc1Sc1ccccc1
inactive: dose: 6.25 mg/kg/injection, schedule: Q01DX009 (ip), vehicle: water 103 % of control | dose: 12.5 mg/kg/injection, schedule: Q01DX009 (ip), vehicle: water 113 % of control | [12] 122 % of control | dose: 100.0 mg/kg/injection, schedule: Q01DX009 (ip), vehicle: water 106 % of control

COc1cccc2c1C(=O)c1c(O)c3c(c(O)c1C2=O)C[C@@](O)(C(=O)CSC(C)=O)C[C@@H]3OC1CC(N)C(O)C(C)O1 (stereo partly specified)
inactive: [12] 108 % of control and 90 % of control

CCCCC(C)(C(=O)OCC)C(=O)OCC
inactive: dose: 12.5 mg/kg/injection, schedule: Q01DX005 (ip), vehicle: Klucel (hydroxypropylcellulose) (HPC) 105 % of control | dose: 25.0 mg/kg/injection, schedule: Q01DX005 (ip), vehicle: Klucel (hydroxypropylcellulose) (HPC) 105 % of control | [2] 105 % of control | [3] 105 % of control | [4] 111 % of control | dose: 400.0 mg/kg/injection, schedule: Q01DX005 (ip), vehicle: Klucel (hydroxypropylcellulose) (HPC) 105 % of control

CCOC(=O)C1CC1C(c1cccnc1C)S(=O)(=O)c1ccccc1 (stereo unspecified)
inactive: [13] 100 % of control | [14] 99 % of control | dose: 400.0 mg/kg/injection, schedule: Q04DX002 (ip), vehicle: saline with Tween-80 97 % of control

CSc1ccccc1N1C(=O)CSC1=S
inactive: [1] 108 % of control | [6] 96 % of control | [8] 89 % of control

CCC(C)C(=O)Nc1ccccc1-c1ccccc1 (stereo unspecified)
inactive: dose: 12.5 mg/kg/injection, schedule: Q01DX009 (ip), vehicle: saline with Tween-80 99 % of control | [15] 100 % of control | [16] 103 % of control | [5] 91 % of control

CCOC(=O)N1N=C(c2ccccc2)OC2(N3CCOCC3)CCC(C(C)(C)C)CC12 (stereo unspecified)
inactive: [2] 100 % of control | [3] 101 % of control | [4] 97 % of control

S=c1s/c(=C\c2ccccc2)c2nc3ccccc3n12
inactive: [5] 90 % of control | [7] 88 % of control

O=[N+]([O-])c1cc2[nH]cnc2c([N+](=O)[O-])c1N1CCOCC1
inactive: dose: 25.0 mg/kg/injection, schedule: Q04DX003 (ip), vehicle: saline with Tween-80 100 % of control | dose: 50.0 mg/kg/injection, schedule: Q04DX003 (ip), vehicle: saline with Tween-80 104 % of control | [17] 97 % of control

[Mn+2].[O-]c1ccccc1/C=N/c1ccccn1.[O-]c1ccccc1/C=N/c1ccccn1.[OH3+].[OH3+]
inactive: dose: 50.0 mg/kg/injection, schedule: Q04DX002 (ip), vehicle: saline with Tween-80 97 % of control | [13] 96 % of control | [14] 94 % of control

C/C=C1\CN(C)CCC23C(=O)CC1C1COC(O)C(=O)N(c4ccccc42)C13 (stereo unspecified)
inactive: dose: 1.0 mg/kg/injection, schedule: Q01DX009 (ip), vehicle: Klucel (hydroxypropylcellulose) (HPC) 103 % of control | dose: 2.0 mg/kg/injection, schedule: Q01DX009 (ip), vehicle: Klucel (hydroxypropylcellulose) (HPC) 110 % of control | dose: 4.0 mg/kg/injection, schedule: Q01DX009 (ip), vehicle: Klucel (hydroxypropylcellulose) (HPC) 118 % of control | dose: 5.0 mg/kg/injection, schedule: Q01DX009 (ip), vehicle: saline 97 % of control | dose: 8.0 mg/kg/injection, schedule: Q01DX009 (ip), vehicle: Klucel (hydroxypropylcellulose) (HPC) 101 % of control | dose: 10.0 mg/kg/injection, schedule: Q01DX009 (ip), vehicle: saline 99 % of control | dose: 16.0 mg/kg/injection, schedule: Q01DX009 (ip), vehicle: Klucel (hydroxypropylcellulose) (HPC) 110 % of control | dose: 20.0 mg/kg/injection, schedule: Q01DX009 (ip), vehicle: saline 101 % of control

CN(C)CCCNc1c2c(nc3ccc(Cl)cc13)CCCC2
inactive: dose: 50.0 mg/kg/injection, schedule: Q01DX005 (ip), vehicle: saline with Tween-80 104 % of control | dose: 100.0 mg/kg/injection, schedule: Q01DX005 (ip), vehicle: saline with Tween-80 106 % of control

CCCCCCc1cc(-c2cc(CCCCCC)[nH]n2)n[nH]1
inactive: [9] 100 % of control | [10] 98 % of control | [11] 95 % of control

O=C(CCCCCS)NCCCCCCCCCCNC(=O)CCCCCS
inactive: dose: 100.0 mg/kg/injection, schedule: Q04DX002 (ip), vehicle: Klucel (hydroxypropylcellulose) (HPC) 97 % of control | dose: 200.0 mg/kg/injection, schedule: Q04DX002 (ip), vehicle: Klucel (hydroxypropylcellulose) (HPC) 92 % of control | dose: 400.0 mg/kg/injection, schedule: Q04DX002 (ip), vehicle: Klucel (hydroxypropylcellulose) (HPC) 90 % of control

CC1=CC=CC2=NC(=O)CCN12
inactive: [17] 100 % of control | dose: 200.0 mg/kg/injection, schedule: Q04DX003 (ip), vehicle: saline with Tween-80 100 % of control

CC1=C(C)C(=O)OC1
inactive: dose: 60.0 mg/kg/injection, schedule: Q01DX005 (ip), vehicle: saline 108 % of control | dose: 120.0 mg/kg/injection, schedule: Q01DX005 (ip), vehicle: saline 107 % of control | dose: 240.0 mg/kg/injection, schedule: Q01DX005 (ip), vehicle: saline 101 % of control

O=C(N/N=C\c1ccc(O)cc1)C(=O)N/N=C\c1ccc(O)cc1
inactive: [5] 87 % of control | [7] 92 % of control | dose: 200.0 mg/kg/injection, schedule: Q01DX009 (ip), vehicle: saline 96 % of control

COc1ccc(/C=C/CC2Cc3cc4c(cc3OC2c2ccc(OC)cc2)OCO4)cc1 (stereo unspecified)
inactive: dose: 3.75 mg/kg/injection, schedule: Q01DX005 (ip), vehicle: saline with Tween-80 93 % of control | dose: 7.5 mg/kg/injection, schedule: Q01DX005 (ip), vehicle: saline with Tween-80 90 % of control

Cc1ccc(C)c2c1-c1ccccc1S2(=O)=O
inactive: [15] 110 % of control | [16] 111 % of control | dose: 100.0 mg/kg/injection, schedule: Q01DX009 (ip), vehicle: saline with Tween-80 109 % of control | dose: 200.0 mg/kg/injection, schedule: Q01DX009 (ip), vehicle: saline with Tween-80 102 % of control
